Tests used:
[1] = test system: chick chorioallantoic membrane (CAM); assay: Chick chorioallantoic membrane (CAM) angiogenesis assay; type: in vivo; settings: pro-angiogenic factor alone
Experimental: Examples of the CAM assay methodology may include the step of providing chick embryos. In some embodiments, the chick embryos may be approximately 10 days old. The chick embryos may be incubated at approximately 37° C. with approximately 55% relative humidity. A hypodermic needle may be used to make a small hole in the shell concealing an air sac, and a second hole may be made on the broad side of the egg, directly over an avascular portion of the embryonic membrane. A false air sac may be created beneath the second hole by the application of negative pressure at the first hole, causing the CAM to separate from the shell. A window, approximately 1.0 cm^2, in size may be cut in the shell over the CAM with a small-crafts grinding wheel, allowing direct access to the underlying CAM. In some embodiments, a pro-angiogenic agent may be provided to induce new blood vessel branches on the CAM of 10-day-old embryos. In the exemplary embodiment, the pro-angiogenic agents may be the endogenous non-peptide pro-angiogenic hormones supplied in the patient's blood sample. The patient's blood sample may subsequently be introduced into the xenograft having a vasculature system in the CAM. The pro-angiogenic agent, the blood or serum sample of the patient along with one or more anti-angiogenic agents may be applied to a sterile disk and followed by allowing the disks to dry. In some embodiments of the CAM assay, Sterile disks of No. 1 filter paper (Whatman International) may be pretreated with approximately 3 mg/mL cortisone acetate and 1 mmol/L of the patient's blood or serum, along with one or more anti-angiogenic agents and air dried under sterile conditions. The disks may then be suspended in phosphate buffered saline (PBS) and placed on growing CAMs. At approximately the 24 hour mark, a mitogen-activated protein kinase (MAPK) cascade inhibitor such as PD 98059 may also be added to CAMs topically by means of the filter disks. Exemplary embodiments having one or more anti-angiogenic agent, may include two, three, four, five or more anti-angiogenic agents, including at least one thyroid hormone antagonist such as tetrac, triac, or conjugated tetrac or triac. After incubation at 37° C. with 55% relative humidity for 3 days, the CAM tissue directly beneath each filter disk may be resected and treated. The tissues may subsequently be washed approximately three times with PBS, placed in 35-mm Petri dishes (Nalge Nunc), and examined under a stereomicroscope at approximately 50× magnification or more. Digital images of CAM sections exposed to filters may be collected and quantified using a 3-charge-coupled device color video camera system and analyzed with Image-Pro software (Media Cybernetics) or equivalent software. Embodiments of the CAM system may not only index tumor-related angiogenesis, but permits spherical tumor growth of the implanted cells. Spherical growth may be important to the development of a hypoxic cell population that resemble tumor behavior clinically. Aggressive xenograft behavior in the CAM model may include metastasis to the chick embryo in the system.

[2] = test system: basic fibroblast growth factor (bFGF, FGF2), vascular endothelial growth factor (VEGF); settings: in the absence of thyroid hormone; cited from earlier work
integrin αvβ3 = integrin αvβ3 (Homo sapiens, UniProt P05106+P06756); settings: cited from earlier work
Chain of integrin αvβ3 (P06756 31-889 limits assumed): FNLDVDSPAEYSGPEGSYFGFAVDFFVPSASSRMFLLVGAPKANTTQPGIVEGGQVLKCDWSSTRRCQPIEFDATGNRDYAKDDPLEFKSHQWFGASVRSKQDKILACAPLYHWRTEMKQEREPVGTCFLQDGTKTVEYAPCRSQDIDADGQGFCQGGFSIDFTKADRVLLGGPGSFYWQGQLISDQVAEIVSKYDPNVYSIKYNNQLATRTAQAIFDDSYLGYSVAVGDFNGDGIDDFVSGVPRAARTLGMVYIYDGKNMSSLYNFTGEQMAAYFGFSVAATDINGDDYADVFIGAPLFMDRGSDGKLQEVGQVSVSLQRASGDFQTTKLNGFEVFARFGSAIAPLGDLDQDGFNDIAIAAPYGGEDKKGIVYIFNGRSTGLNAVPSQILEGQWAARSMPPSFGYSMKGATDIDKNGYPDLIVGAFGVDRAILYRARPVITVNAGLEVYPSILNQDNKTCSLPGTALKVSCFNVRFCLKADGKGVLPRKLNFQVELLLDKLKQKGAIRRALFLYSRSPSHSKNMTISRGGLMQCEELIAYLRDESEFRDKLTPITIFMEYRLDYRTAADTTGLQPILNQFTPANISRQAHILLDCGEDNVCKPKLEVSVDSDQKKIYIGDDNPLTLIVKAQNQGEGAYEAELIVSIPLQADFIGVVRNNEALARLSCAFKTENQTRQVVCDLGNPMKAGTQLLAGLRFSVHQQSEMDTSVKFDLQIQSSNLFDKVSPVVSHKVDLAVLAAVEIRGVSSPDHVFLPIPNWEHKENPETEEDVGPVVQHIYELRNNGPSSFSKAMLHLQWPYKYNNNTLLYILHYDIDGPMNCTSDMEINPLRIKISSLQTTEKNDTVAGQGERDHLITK
Chain of integrin αvβ3 (P06756 891-1048 partner limits assumed): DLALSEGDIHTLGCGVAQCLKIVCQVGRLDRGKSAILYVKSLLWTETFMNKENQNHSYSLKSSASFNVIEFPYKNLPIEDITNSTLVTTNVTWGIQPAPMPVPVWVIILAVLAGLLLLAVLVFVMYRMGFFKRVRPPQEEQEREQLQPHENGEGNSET
Chain of integrin αvβ3 (P05106 27-788): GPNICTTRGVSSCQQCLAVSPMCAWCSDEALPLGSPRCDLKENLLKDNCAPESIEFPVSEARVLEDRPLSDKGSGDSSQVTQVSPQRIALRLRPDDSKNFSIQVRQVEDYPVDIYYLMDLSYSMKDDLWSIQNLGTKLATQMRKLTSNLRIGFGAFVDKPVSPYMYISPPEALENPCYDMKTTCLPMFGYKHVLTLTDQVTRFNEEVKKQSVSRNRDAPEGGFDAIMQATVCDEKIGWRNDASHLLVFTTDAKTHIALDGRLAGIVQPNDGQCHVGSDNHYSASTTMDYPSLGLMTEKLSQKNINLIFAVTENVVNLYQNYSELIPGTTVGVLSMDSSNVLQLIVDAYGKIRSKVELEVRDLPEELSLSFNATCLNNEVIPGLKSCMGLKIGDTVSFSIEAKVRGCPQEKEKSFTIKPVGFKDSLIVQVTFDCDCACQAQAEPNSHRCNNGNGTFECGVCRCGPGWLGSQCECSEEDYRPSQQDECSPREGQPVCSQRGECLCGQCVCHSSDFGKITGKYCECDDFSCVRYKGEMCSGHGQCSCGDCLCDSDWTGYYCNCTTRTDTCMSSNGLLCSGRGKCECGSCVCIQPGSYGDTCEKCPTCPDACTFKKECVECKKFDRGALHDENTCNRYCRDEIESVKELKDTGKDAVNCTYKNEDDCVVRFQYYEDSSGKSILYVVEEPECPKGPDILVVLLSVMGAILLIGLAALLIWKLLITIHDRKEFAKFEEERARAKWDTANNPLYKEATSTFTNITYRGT

[3] = test system: human breast cancer cells; settings: in vitro; cited from earlier work
glioma cells = settings: in vitro; cited from earlier work

Compound | Branch points ± SEM [1] | further results
VEGF | 182.4 ± 8.4 | –
N[C@@H](Cc1cc(I)c(Oc2cc(I)c(O)c(I)c2)c(I)c1)C(=O)O [T4, L-thyroxine] | 119.2 ± 15.6 | –
Tetraiodothyroacetic acid [tetrac] | – | angiogenic activity of bFGF, VEGF and other pro-angiogenic factors [2]: blocks the angiogenic activity; agonist activity at the integrin (integrin αvβ3): no agonist activity; binding of T4 and T3 to the integrin (integrin αvβ3): inhibits binding; growth of human breast cancer cells [3]: arrest growth; growth of glioma cells (glioma cells): arrest growth
N[C@@H](Cc1cc(I)c(Oc2ccc(O)c(I)c2)c(I)c1)C(=O)O [T3, 3,5,3′-triiodo-L-thyronine] | 186.8 ± 16.4 | –
bFGF: basic fibroblast growth factor | 184.6 ± 18.5 | –
Angiotensin II (DRVYIHPF; Angiotensin-2; UniProt P01019 25-32, looked up) [small molecule that supports neovascularization; pro-angiogenic factor in the CAM assay] | 103.2 ± 25.9 | –

Reference: patent US10060934B2, “Methods for screening patients for resistance to angioinhibition, treatment and prophylaxis thereof” (NANOPHARMACEUTICALS LLC, priority 2013, dated 2018)
